Test results published in patent US6656911B2, “Serine protease inhibitors” (Cortech, Inc., priority 1994, dated 2003).
Where two headings read alike, the source gives them in different places.

What was measured:
[1] = system: polymorphoneucleocyte (PMN); assay: Extracellular Matrix (ECM) degradation assay; format: cell-based; conditions: PMN's stimulated with opsonized zymosan, 4 hr at 37° C.; for inhibition at 1 µM / ECM DATA % Inhibition 1 uM: 1 uM inhibitor; for inhibition at 5 µM / ECM DATA % Inhibition 5 uM: 5 uM inhibitor
Summary of the method: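 Radiolabelled ([35S]sulfate/[3H]proline) ECM from R22 rat smooth muscle cells preincubated 30 min with 1 or 5 uM inhibitor in HBSS (<2% DMSO). PMNs (5×10^5/well) stimulated with serum-opsonized zymosan (10 particles/PMN), 4 h at 37 °C. Degradation = released over total ECM counts, minus PMN-free basal release.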

[2] = Blood level screening after oral dose; format: in vivo, Sprague-Dawley rats; conditions: rat, oral gavage 10 mg/kg; for concentration at 1 h / concentration at 3 h / concentration at 6 h: male, Sprague-Dawley, plasma; for concentration at 1 h: read-out: Plasma Levels (μM) 1 hr; for concentration at 3 h: read-out: Plasma Levels (μM) 3 hr; for concentration at 6 h: read-out: Plasma Levels (μM) 6 hr
Summary of the method: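 Unfasted male Sprague-Dawley rats received 10 mg/kg by oral gavage in PEG, PEG-400 or PEG:H2O:EtOH. Plasma was solvent-extracted and the inhibitor measured by HPLC or LC/MS.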

[3] = molecular target: T1, human neutrophil elastase (HNE) (Homo sapiens, UniProt P08246); assay: HNE Ki of CE compounds, tested as described in WO 96/16080; format: biochemical
T1 sequence (P08246 30-267): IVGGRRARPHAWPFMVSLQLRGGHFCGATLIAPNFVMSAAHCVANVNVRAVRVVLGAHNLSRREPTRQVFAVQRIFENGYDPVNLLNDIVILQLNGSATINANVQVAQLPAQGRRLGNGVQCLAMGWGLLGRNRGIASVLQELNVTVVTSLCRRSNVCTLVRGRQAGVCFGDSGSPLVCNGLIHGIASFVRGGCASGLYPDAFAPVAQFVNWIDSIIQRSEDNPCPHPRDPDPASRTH

Ki ([3]; read-out: HNE Ki)	Plasma Levels (μM) 3 hr [2]	Plasma Levels (μM) 1 hr [2]	Plasma Levels (μM) 6 hr [2]	Structure (SMILES)	inhibition at 1 µM [1]	inhibition at 5 µM [1]	concentration at 1 h [2]	concentration at 3 h [2]	Ki ([3]; HNE Ki (nM))	concentration at 6 h [2]	ECM DATA % Inhibition 1 uM [1]	ECM DATA % Inhibition 5 uM [1]
				Cc1cccc(Cc2nnc(C(=O)[C@@H](NC(=O)CN3C(=O)CN=C(c4ccccn4)c4ccccc43)C(C)C)o2)c1 [CE2217, 2-Oxo-5-(2-pyridyl)-1,4-benzodiazepine-N-[1-(2-[5-(3-methylbenzyl)-1,3,4-oxadiazolyl]carbonyl)-2-(S)-methylpropyl]acetamide]	28.1%	41.2%	1.99 µM	0.521 µM	5.5 nM			
41.6 nM				Cc1cccc(Cc2nnc(C(=O)[C@@H](NC(=O)CN3C(=O)CN=C(C4CCNCC4)c4ccccc43)C(C)C)o2)c1 [CE2233, 2-Oxo-5-(4-piperidinyl)-1,4-benzodiazepine-N-[1-(2-[5-(3-methylbenzyl)-1,3,4-oxadiazolyl]carbonyl)-2-(S)-methylpropyl]acetamide]	54.7%	55.4%	0.07 µM	0.065 µM		0.036 µM		
162 nM				Cc1cccc(Cc2nnc(C(=O)[C@@H](NC(=O)CN3C(=O)CNC3=O)C(C)C)o2)c1 [CE2238, 2,5-Imidazolidinedione-N-[1-(2-[5-(3-methylbenzyl)-1,3,4-oxadiazolyl]carbonyl)-2-(S)-methylpropyl]acetamide]	10.1%	18.8%	2.57 µM	1.74 µM		1.03 µM		
43 nM	1.15 µM	1.46 µM	0.71 µM	Cc1cccc(Cc2nnc(C(=O)[C@@H](NC(=O)CN3C(=O)NC(C)(C)C3=O)C(C)C)o2)c1 [CE2239, 4,4-Dimethyl-2,5-imidazolidinedione-N-[1-(2-[5-(3-methylbenzyl)-1,3,4-oxadiazolyl]carbonyl)-2-(S)-methylpropyl]acetamide]							11.9%	11.3%
30 nM	0.5 µM	1.12 µM	0.29 µM	Cc1cccc(Cc2nnc(C(=O)[C@@H](NC(=O)CN3C(=O)N[C@@H](C(C)C)C3=O)C(C)C)o2)c1 [CE2240, 4-(S)-(2-Isopropyl)-2,5-imidazolidinedione-N-[1-(2-[5-(3-methylbenzyl)-1,3,4-oxadiazolyl]carbonyl)-2-(S)-methylpropyl]acetamide]							16.8%	13.5%

Structure (SMILES)	Ki ([3]; read-out: HNE Ki)	Plasma Levels (μM) 3 hr [2]	Plasma Levels (μM) 1 hr [2]	Plasma Levels (μM) 6 hr [2]	inhibition at 1 µM [1]	inhibition at 5 µM [1]	concentration at 1 h [2]	concentration at 3 h [2]	Ki ([3]; HNE Ki (nM))	concentration at 6 h [2]	ECM DATA % Inhibition 1 uM [1]	ECM DATA % Inhibition 5 uM [1]
Cc1cccc(Cc2nnc(C(=O)C(NC(=O)CN3C(=O)C(N)N=C(c4ccc(Cl)cc4)c4ccccc43)C(C)C)o2)c1 [CE2224, (R,S)-3-Amino-2-oxo-5-(4-chlorophenyl)-1,4-benzodiazepine-N-[1-(2-[5-(3-methylbenzyl)-1,3,4-oxadiazolyl]carbonyl)-2-(R,S)-methylpropyl]acetamide]	1 nM				43.2%	66.8%	1.84 µM	1.94 µM		1.96 µM		
Cc1cccc(Cc2nnc(C(=O)C(NC(=O)CN3C(=O)C(NC(=O)OCc4ccccc4)N=C(c4ccccc4Cl)c4cc(Cl)ccc43)C(C)C)o2)c1 [CE2230, (R,S)-3-Benzyloxycarbonylamino-2-oxo-5-(2-chlorophenyl)-1,4-(2′-chlorobenzodiazepine)-N-[1-(2-[5-(3-methylbenzyl)-1,3,4-oxadiazolyl]carbonyl)-2-(R,S)-methylpropyl]acetamide]	2.6 nM	0 µM									37.7%	37.8%
Cc1cccc(Cc2nnc(C(=O)[C@@H](NC(=O)CN3C(=O)CN=C(c4ccc(C(F)(F)F)cc4)c4ccccc43)C(C)C)o2)c1 [CE2237, 2-Oxo-5-(4-trifluoromethylphenyl)-1,4 benzodiazepine-N-[1-(2-[5-(3-methylbenzyl)-1,3,4-oxadiazolyl]carbonyl)-2-(S)-methylpropyl]acetamide]	3 nM				34.6%	42.6%	1.02 µM	1.8 µM		0.84 µM		
